Data set [1] concerns the target human dopamine receptor subtype D2L (Homo sapiens, UniProt P14416). The data set can be described thus: Radioligand displacement, [3H]spiperone, CHO cell membranes. Format: binding. The settings on record: [3H]spiperone; mean ± SEM of 4-9 experiments; compounds 1, 2, 3: ± SD of two experiments; read-out: Ki value D2L.
The target of data set [2] is human dopamine receptor subtype D2S (Homo sapiens, UniProt P14416). The description is as above. It counts as binding. As to conditions: [3H]spiperone; mean ± SEM of 4-9 experiments; compounds 1, 2, 3: ± SD of two experiments; read-out: Ki value D2S.
Sequence of human dopamine receptor subtype D2S (P14416 1-414 isoform P14416-2): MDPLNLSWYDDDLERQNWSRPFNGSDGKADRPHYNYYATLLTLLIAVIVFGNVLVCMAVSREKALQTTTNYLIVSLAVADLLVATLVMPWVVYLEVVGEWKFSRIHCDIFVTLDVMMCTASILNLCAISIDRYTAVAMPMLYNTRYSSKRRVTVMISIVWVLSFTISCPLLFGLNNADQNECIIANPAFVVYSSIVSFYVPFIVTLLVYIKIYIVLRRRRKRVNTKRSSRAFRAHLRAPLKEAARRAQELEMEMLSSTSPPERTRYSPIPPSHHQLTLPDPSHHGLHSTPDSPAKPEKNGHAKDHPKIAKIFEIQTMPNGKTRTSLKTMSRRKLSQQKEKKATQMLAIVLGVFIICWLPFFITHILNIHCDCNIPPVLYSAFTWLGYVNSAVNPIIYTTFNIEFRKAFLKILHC
Data set [3] has as its target T1, dopamine D2S receptor co-expressed with hybrid Gαqi in HEK293T cells (Homo sapiens, UniProt P14416).
T1 construct: expressed in transfected cells; host or cells: HEK-293T cells, transient co-transfection
The data set can be described thus: IP accumulation assay (IP-One HTRF), agonist / inverse agonist effect. Format: cell-based. As to conditions: for functional properties in IP accumulation assay (in words): D2S receptors; for Emax: HEK-293T, relative to full effect of quinpirole (100%) and buffer (0%); for EC50: IP accumulation, ± SEM, 3-8 experiments, negative Emax = inverse agonist effect.

The target in data set [4] is T1, dopamine D2S receptor co-expressed with hybrid Gαqi in HEK293T cells. Briefly: IP accumulation assay (IP-One HTRF), inhibition of 10 nM quinpirole. It counts as cell-based. The settings on record: for Emax: HEK-293T, in presence of 10 nM quinpirole, relative to quinpirole (100%) and buffer (0%), read-out: inhibitory effect Emax; for IC50: blocking of the agonist effect of 10 nM quinpirole, ± SEM, 4-6 experiments, read-out: inhibitory effect IC50.

Data set [5] addresses T2, D2S receptor (HEK293T cells co-transfected with D2S and Gαqi) (Homo sapiens, UniProt P14416).
T2 construct: expressed in transfected cells; host or cells: HEK-293T cells, transient co-transfection
Briefly: Illumination experiment: test compound solution irradiated at 365 nm before addition to cells, quinpirole stimulated IP accumulation. Format: cell-based. The settings on record: for irradiation time after which no quinpirole activity could be observed / agonist effect of quinpirole remaining after 2 seconds of irradiation: 50 nM caged compound, 365 nm; for irradiation time for complete release (uncaging) of dechloroeticlopride: 50 nM, irradiation at 365 nm, solution irradiated before addition to cells. The text has this:
[…]. Mean curves ± SEM of 4–9 individual curves each done in triplicates. […]. Mean curves from 3–4 experiments each done in duplicate. […]. While 4 (MG307) (green bars) is completely released after 10 sec, the uncaging of 5 (red bars) needs 20 sec. […]. Mean bars ± SEM derived from 3–11 individual experiments each done in quintuplicates. Irradiation with a solution of test compound before addition to the cellular test system. […]. Means ± SEM from 6 experiments in quintuplicates.
[…]. Actually, we observed an onset of a strong inverse agonist effect on quinpirole-induced IP accumulation after irradiation of the nitrobenzyl-caged compound 4 (MG307). […] […]. […] To complement uncaging of the test compounds by irradiation of the test compounds before addition to receptor by a biologically more significant experiment, we investigated whether uncaging can also be accomplished directly in the cellular system. […] In fact, quinpirole-promoted IP accumulation was substantially attenuated after irradiation for 10 or 20 sec. […] […]. […] […].
HEK293T cells were transiently co-transfected with D2S and Gαqi. Solutions of the test compounds were irradiated at λ = 365 nm using the same LED as for the photochemistry experiments (see above) for 2, 5, 10 or 20 sec and the test compound was added to the cell system immediately after illumination. […]. Accumulation of IP was determined as described above. […]. Basal activity (buffer) was set as 0%. As a control, quinpirole was irradiated for 20 sec without observing any difference to the effect of the untreated analog. […]. All irradiation experiments were carried out in the dark or under dim light.

Data set [6] is described as follows: Compound stability and photolysis in aqueous buffer monitored by HPLC. The settings on record: for behaviour upon illumination with λp = 365 nm (in words): aqueous buffer, LED 365 nm, HPLC; for stability in the absence of light (in words): dark, storage and solution, HPLC/LCMS; for remaining fraction of the initial concentration: incubation in aqueous buffer at ambient light for 1 h. Format: physicochemical. The procedure:
All measurements were performed in aqueous buffer solution. Compound stability and photolysis was monitored by HPLC. […] Excitation of NB- and DMNB-type cages to trigger photolysis is usually performed with light of 300–400 nm. This absorption profile may limit the wavelength range for cage photolysis, as simultaneous excitation of the core pharmacophore may trigger photolytic degradation of the desired product. We performed photolysis experiments using a near UV light-emitting diode (LED) light source with a peak wavelength of λp = 365 nm and a spectrum half width of Δλ = 9 nm.
No unspecific degradation of the pharmacophore was observed, resulting in constant concentration of the desired product. […] The exposure to ambient light for longer time led to partial photolytic degradation. After incubation in aqueous buffer at ambient light for 1 h, we detected remaining 51% and 62% of the initial concentrations of 4 (MG307) and 5, respectively.
For compound characterization, UV/Vis absorption spectra of samples with c = 0.1 mM in methanol were measured on an Analytik Jena Specord 200 Plus spectrometer (λ = 210–400 nm). Irradiation experiments to trigger photolysis were performed in open HPLC glass vials using a LED (λ = 365 nm, 4.5 V, 0.7 A) to irradiate the samples from top. An aqueous buffer solution served as solvent (50 mM Tris, 1 mM EDTA, 50 mM MgCl2, 100 µg/ml bacitracin, 5 µg/ml soybean trypsin inhibitor), with initial sample concentrations of […] and sample volumes of 100 µl. Photolysis was monitored by HPLC as specified before (eluent system 1). […] Unless specified differently, all experiments were performed in triplicate.

Data set [7] has as its target human dopamine receptor subtype D3 (Homo sapiens, UniProt P35462). The data set can be described thus: Radioligand displacement, [3H]spiperone, CHO cell membranes. Format: binding. The settings on record: mean ± SEM of 4-9 experiments, compounds 1, 2, 3: ± SD of two experiments.
Data set [8] has as its target T3, human dopamine receptor subtype D4.4 (Homo sapiens, UniProt P21917).
T3 sequence (P21917 1-419): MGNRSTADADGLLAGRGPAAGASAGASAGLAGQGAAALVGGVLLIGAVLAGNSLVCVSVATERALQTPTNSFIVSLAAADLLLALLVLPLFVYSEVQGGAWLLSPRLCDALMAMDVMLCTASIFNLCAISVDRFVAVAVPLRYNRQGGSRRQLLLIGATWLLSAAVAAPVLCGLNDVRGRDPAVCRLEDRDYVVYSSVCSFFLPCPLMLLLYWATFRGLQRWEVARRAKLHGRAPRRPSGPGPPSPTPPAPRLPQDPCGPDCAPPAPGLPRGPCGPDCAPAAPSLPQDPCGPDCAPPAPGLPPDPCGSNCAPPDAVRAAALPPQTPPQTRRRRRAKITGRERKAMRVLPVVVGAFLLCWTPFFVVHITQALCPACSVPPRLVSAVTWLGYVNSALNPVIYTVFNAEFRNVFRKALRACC
The description is as above. Format: binding. The settings on record: [3H]spiperone; mean ± SEM of 4-9 experiments; compounds 1, 2, 3: ± SD of two experiments; read-out: Ki value D4.4.

“Also recorded” adds a separate entry of the source.

Sequence of human dopamine receptor subtype D2L (P14416 whole entry): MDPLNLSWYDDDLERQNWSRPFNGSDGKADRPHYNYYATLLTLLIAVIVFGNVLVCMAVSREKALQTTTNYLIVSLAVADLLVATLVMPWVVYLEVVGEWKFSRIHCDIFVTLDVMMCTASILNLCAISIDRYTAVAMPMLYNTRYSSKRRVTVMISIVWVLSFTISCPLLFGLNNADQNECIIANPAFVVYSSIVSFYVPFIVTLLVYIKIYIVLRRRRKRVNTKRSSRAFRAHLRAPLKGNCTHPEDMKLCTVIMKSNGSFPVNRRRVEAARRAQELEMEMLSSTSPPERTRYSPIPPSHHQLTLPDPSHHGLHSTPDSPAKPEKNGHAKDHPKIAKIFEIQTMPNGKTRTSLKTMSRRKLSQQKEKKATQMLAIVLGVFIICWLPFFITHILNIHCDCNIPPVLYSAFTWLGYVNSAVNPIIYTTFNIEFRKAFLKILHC
T2 sequence (P14416 1-414 isoform P14416-2): as the sequence (P14416 1-414 isoform P14416-2) above
T1 sequence (P14416 1-414 isoform P14416-2): as above
Sequence of human dopamine receptor subtype D3 (P35462 whole entry): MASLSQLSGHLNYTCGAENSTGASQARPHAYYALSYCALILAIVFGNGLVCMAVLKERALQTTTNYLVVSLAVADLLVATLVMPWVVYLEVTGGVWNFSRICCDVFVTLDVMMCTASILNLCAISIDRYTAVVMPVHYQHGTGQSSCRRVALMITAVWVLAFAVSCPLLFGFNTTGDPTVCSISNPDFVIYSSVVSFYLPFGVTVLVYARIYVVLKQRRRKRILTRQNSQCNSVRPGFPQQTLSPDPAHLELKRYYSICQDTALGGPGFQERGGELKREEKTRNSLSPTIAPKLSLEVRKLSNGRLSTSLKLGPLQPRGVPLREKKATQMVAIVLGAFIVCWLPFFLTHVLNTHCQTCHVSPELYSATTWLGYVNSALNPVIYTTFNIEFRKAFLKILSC

For the compound `CCc1ccc(OC)c(C(=O)NC[C@@H]2CCCN2CC)c1O` [dechloroeticlopride, (S)-3-Ethyl-N-[(1-ethylpyrrolidin-2-yl)methyl]-2-hydroxy-6-methoxybenzamide, reference compound], in data set [1], the Ki stood at 2.4 ± 0.44 nM. For the same compound, the Ki in data set [2] was 1.2 ± 0.21 nM. Also, in data set [3], the “functional properties in IP accumulation assay (in words)” value (“functional properties” below) was “specific antagonist / inverse agonist”, the Emax is -17 ± 2.5% and the EC50 is 5.2 ± 0.8 nM. In data set [4], the Emax is -20 ± 2.1% and the IC50 was 9.6 nM. In addition, the “effect of irradiation at 365 nm for 20 sec on the compound's effect on IP accumulation (in words)” value in data set [5] (controls, 10 nM quinpirole) is recorded as “does not affect”. Further, the “behaviour upon illumination with λp = 365 nm (in words)” value (“behaviour upon illumination” for short) in data set [6] is “more photostable; also recorded: no significant decomposition”.
In the case of `CCc1ccc(OC)c(C(=O)NC[C@@H]2CCCN2CC)c1OCc1ccccc1[N+](=O)[O-]` [compound 4, (S)-3-Ethyl-N-[(1-ethylpyrrolidin-2-yl)methyl]-6-methoxy-2-[(2-nitrobenzyl)oxy]benzamide], the Ki in data set [1] came to 210 ± 18 nM. Moreover, the Ki in data set [2] was found to be 220 ± 66 nM. For the same compound, in data set [7], the affinity, expressed as Ki, was 200 ± 62 nM. Besides, the Ki in data set [8] was 2800 ± 180 nM. Besides, in data set [3], the “functional properties” value is reported as “inverse agonist properties were observed as well, but potency was low”; the Emax is -21 ± 3.3%; the EC50 was 220 ± 65 nM. Moreover, in data set [4], the Emax was -29 ± 5.6% and the IC50 is 850 ± 210 nM. In addition, in data set [5] (10 nM quinpirole), the “irradiation time after which no quinpirole activity could be observed” value was 10 s and the “agonist effect of quinpirole remaining after 2 seconds of irradiation” value is recorded as “less than 30%”. Moreover, the “irradiation time for complete release (uncaging) of dechloroeticlopride” value in data set [5] is 10 s. Besides, in data set [6], the “behaviour upon illumination” value is given as “fast conversion to dechloroeticlopride within a few seconds”; the “stability in the absence of light (in words)” value was “stable under storage conditions and in solution for at least two days”; the “remaining fraction of the initial concentration” value worked out at 51%. Further, the “behaviour upon illumination” value in data set [6] (listed as 4 (MG307)) was “clean photolysis”.
For the compound `CCc1ccc(OC)c(C(=O)NC[C@@H]2CCCN2CC)c1OCc1cc(OC)c(OC)cc1[N+](=O)[O-]` [compound 5], in data set [1], the Ki was 350 ± 47 nM. Besides, the Ki in data set [2] amounted to 160 ± 35 nM. For the same compound, affinity in data set [7] was put at a Ki of 140 ± 33 nM. Further, the Ki in data set [8] is 25000 ± 3300 nM. In data set [3], the “functional properties” value is on record as “inverse agonist properties were observed as well, but potency was low”; the Emax is -21 ± 5.5%; the EC50 was determined as 280 ± 120 nM. Also, in data set [4], the Emax is -28 ± 4.6% and the IC50 was determined as 990 ± 230 nM. For the same compound, in data set [5] (10 nM quinpirole), the “irradiation time after which no quinpirole activity could be observed” value is 20 s and the “agonist effect of quinpirole remaining after 2 seconds of irradiation” value is reported as “less than 30%”. Moreover, the “irradiation time for complete release (uncaging) of dechloroeticlopride” value in data set [5] is 20 s. Besides, in data set [6], the “behaviour upon illumination” value is on record as “fast conversion to dechloroeticlopride within a few seconds; also recorded: clean photolysis”; the “stability in the absence of light (in words)” value was “stable under storage conditions and in solution for at least two days”; the “remaining fraction of the initial concentration” value is given as 62%.

The values above are taken from article PMC6972920, “Structure-based development of caged dopamine D2/D3 receptor antagonists” (Scientific Reports, 2020).
